Reference: PMC12114598, “Repositioning FDA-Approved Sulfonamide-Based Drugs as Potential Carbonic Anhydrase Inhibitors in Trypanosoma cruzi: Virtual Screening and In Vitro Studies” (Pharmaceuticals, 2025)
Each block holds one compound with its values, some of them ahead of it.

What was measured:
in vitro = type: cell-based; settings: mouse
Experimental: Cytotoxicity assays were performed using the methodology proposed by Domínguez-Diaz et al. on a mouse macrophage cell line (J774.2). Cells were cultured in LIT medium supplemented with 10% SFB, penicillin (100 U μg/mL), and streptomycin (100 U μg/mL) at 37 °C in a 5% CO2 atmosphere. The culture medium was replaced at 2–3 day intervals. To evaluate the cytotoxicity of the compounds, 50,000 cells/well were plated in a 96-well plate and allowed to adhere for 24 h at 37 °C. Subsequently, the compounds were added at concentrations of 0.8 to 100 μg/mL to obtain a final volume of 200 μL and incubated for […] with 5% CO2. DMSO 0.1% (maximum concentration used) was included as a negative control and the control drugs as positive ones. The metabolic activity of the cell was determined following the MTT method, the % cell viability was calculated, and the median lethal concentration (LC50) was determined by Probit analysis. Analyses were performed in triplicate, and the Selectivity Index (SI) for the three parasitic stages in the NINOA and A1 strains (CC50/IC50) was calculated.

[1] = test system: T. cruzi amastigotes, A1 strain; assay: Amastigote assay, A1 strain; type: cell-based; settings: Trypanosoma cruzi; in J774.2 macrophages, 48 h, MTT; ± SD; read-out: Amastigote (Ex Vivo) A1 IC50
Experimental: (§1) Amastigote susceptibility to reference drugs was evaluated in vitro. […] The lysis solution was then replaced with Schneider’s medium followed by incubation at 28 °C for another 4 to 5 days to allow the transformation of viable amastigotes and their subsequent proliferation. Then, MTT colorimetric assays were performed. Finally, the half maximal inhibitory concentration (IC50) was determined by probit analysis. All studies were approved by the Institutional Committee for Handling and Animal Care of the Facultad de Ciencias Quimicas de la Universidad Autonoma “Benito Juarez” de Oaxaca (Register FCQ-CIP-0209243, Approved 23 September 2024) and were carried out according to Mexican guidance (NOM-062-ZOO-1999).

[2] = test system: T. cruzi epimastigotes, NINOA strain; assay: Trypanocidal activity, epimastigotes in vitro, NINOA strain; type: cell-based; settings: Trypanosoma cruzi; 48 h, resazurin; ± SD; read-out: Epimastigote (In Vitro) NINOA IC50
From the text: (§2) The selected drugs were purchased from Sigma-Aldrich without further purification. For the in vitro evaluation, the methodology proposed by Domínguez-Diaz et al. 2021 [53] against epimastigotes of T. cruzi strains NINOA (MHOM/MX/1994/NINOA) and A1 for the evaluation of candidate compounds was used. Both strains were maintained in liver-infusion tryptose (LIT) medium supplemented with 10% fetal bovine serum (FBS) and 0.1% penicillin–streptomycin. These strains were maintained by transferring 1 × 10^6 parasites/mL to fresh medium once a week. […] All compounds were initially prepared at a concentration of 10 mg/mL using dimethyl sulfoxide (DMSO) as a diluent. Serial dilutions were then performed with LIT medium until concentrations of 100 to 0.46 μg/mL of each compound were obtained. Amounts of 1 × 10^6 T. cruzi epimastigotes were grown in each well and incubated for 48 h at 28 °C in a final volume of 200 μL. DMSO was included as a negative control, and reference drugs as positive controls. At the end of the incubation period, 20 μL of resazurin solution (2.5 mM) was added to each well and incubated for 3 h. All assays were performed in triplicate, and the IC50 value was determined by probit analysis.

α-TcCA = α-TcCA (Trypanosoma cruzi, UniProt Q4CVY4); assay: CO2 hydrase stopped-flow assay, α-TcCA
Experimental: An Applied Photophysics stopped-flow instrument was used for assaying the CA-catalysed CO2 hydration activity [31]. […] The uncatalyzed rates were determined in the same manner and subtracted from the total observed rates. Stock solutions of inhibitor (0.1 mM) were prepared in distilled/deionized water, and dilutions up to 0.01 nM were performed thereafter with the assay buffer. Inhibitor and enzyme solutions were preincubated together for 15 min at room temperature before assaying to allow for the formation of the E–I complex. The inhibition constants were obtained by nonlinear least-squares methods using PRISM 3 and the Cheng–Prusoff equation and represent the mean from at least three different determinations.

hCA II = target: T1, hCA II (Homo sapiens, UniProt P00918); assay: CO2 hydrase stopped-flow assay, hCA II; type: biochemical; settings: mean of three assays, errors ±5–10%
T1 construct: made in house
Experimental: (§3) An Applied Photophysics stopped-flow instrument was used for assaying the CA-catalysed CO2 hydration activity. […] The uncatalyzed rates were determined in the same manner and subtracted from the total observed rates. Stock solutions of inhibitor (0.1 mM) were prepared in distilled/deionized water, and dilutions up to 0.01 nM were performed thereafter with the assay buffer. Inhibitor and enzyme solutions were preincubated together for 15 min at room temperature before assaying to allow for the formation of the E–I complex. The inhibition constants were obtained by nonlinear least-squares methods using PRISM 3 and the Cheng–Prusoff equation and represent the mean from at least three different determinations. […] All hCA isoforms were recombinant ones obtained in-house, as reported earlier.

[3] = test system: T. cruzi blood trypomastigotes, NINOA strain; assay: Trypanocidal activity, blood trypomastigotes ex vivo, NINOA strain; type: cell-based; settings: Trypanosoma cruzi; 24 h at 4 °C; ± SD; read-out: Trypomastigote (Ex Vivo) NINOA IC50
Experimental: (§4) Ex vivo evaluation of the trypanocidal activity of the tested compounds was conducted according to previously established protocols. Blood was collected via intracardiac puncture from mice infected with T. cruzi NINOA and A1 strains and diluted in phosphate-buffered saline (PBS, pH 7.2) to achieve a final concentration of 2 × 10^6 blood trypomastigotes/mL. […] The plates were incubated at 4 °C for 24 h. […] Following incubation, live parasites were quantified using a Neubauer chamber, and the half-maximal inhibitory concentration (IC50) was determined by probit analysis. All assays were performed in three independent experiments, each conducted in triplicate.

[4] = test system: T. cruzi epimastigotes, A1 strain; assay: Trypanocidal activity, epimastigotes in vitro, A1 strain; type: cell-based; settings: Trypanosoma cruzi; 48 h, resazurin; ± SD; read-out: Epimastigote (In Vitro) A1 IC50
From the text: as §2

hCA I = target: T2, hCA I (Homo sapiens, UniProt P00915); assay: CO2 hydrase stopped-flow assay, hCA I; type: biochemical; settings: mean of three assays, errors ±5–10%
T2 construct: made in house
Experimental: as §3

[5] = test system: T. cruzi amastigotes, NINOA strain; assay: Amastigote assay, NINOA strain; type: cell-based; settings: Trypanosoma cruzi; in J774.2 macrophages, 48 h, MTT; ± SD; read-out: Amastigote (Ex Vivo) NINOA IC50
Experimental: as §1

[6] = test system: T. cruzi blood trypomastigotes, A1 strain; assay: Trypanocidal activity, blood trypomastigotes ex vivo, A1 strain; type: cell-based; settings: Trypanosoma cruzi; 24 h at 4 °C; ± SD; read-out: Trypomastigote (Ex Vivo) A1 IC50
Experimental: as §4

T. cruzi epimastigotes = test system: T. cruzi epimastigotes; set-up: method as in PMID 32560043; settings: in vitro epimastigote model; cited from earlier work

Chain of α-TcCA (Q4CVY4 entry or part of it): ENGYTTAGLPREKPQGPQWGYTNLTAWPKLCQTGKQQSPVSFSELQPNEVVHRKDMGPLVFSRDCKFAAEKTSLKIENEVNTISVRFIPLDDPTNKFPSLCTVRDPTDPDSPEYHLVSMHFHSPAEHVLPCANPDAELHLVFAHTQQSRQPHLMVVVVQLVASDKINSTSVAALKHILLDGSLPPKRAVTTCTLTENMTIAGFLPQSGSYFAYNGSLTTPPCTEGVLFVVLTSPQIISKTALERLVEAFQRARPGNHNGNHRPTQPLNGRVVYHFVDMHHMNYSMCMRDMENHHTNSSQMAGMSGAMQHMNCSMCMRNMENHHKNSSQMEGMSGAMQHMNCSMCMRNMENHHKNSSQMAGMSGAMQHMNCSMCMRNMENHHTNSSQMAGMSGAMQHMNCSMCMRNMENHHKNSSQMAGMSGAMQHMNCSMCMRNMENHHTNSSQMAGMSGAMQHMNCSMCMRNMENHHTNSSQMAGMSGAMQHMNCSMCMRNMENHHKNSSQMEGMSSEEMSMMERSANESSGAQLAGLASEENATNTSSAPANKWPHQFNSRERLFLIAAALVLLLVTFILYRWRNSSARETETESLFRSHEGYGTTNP
T2 sequence (P00915 whole entry): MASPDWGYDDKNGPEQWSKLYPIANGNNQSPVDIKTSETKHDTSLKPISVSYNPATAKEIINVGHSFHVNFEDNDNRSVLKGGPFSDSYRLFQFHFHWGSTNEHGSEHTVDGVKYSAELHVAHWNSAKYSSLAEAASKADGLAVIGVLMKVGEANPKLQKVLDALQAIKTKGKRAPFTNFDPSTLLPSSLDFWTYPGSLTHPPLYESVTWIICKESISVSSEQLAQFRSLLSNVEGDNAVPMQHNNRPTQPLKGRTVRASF

SMILES: CC(=O)Nc1nnc(S(N)(=O)=O)s1 [Aaz, acetazolamide]
CC50 at 48 h (in vitro): 12.6 ± 4.7 µM

SMILES: CC(=O)c1ccc(S(=O)(=O)NC(=O)NC2CCCCC2)cc1 [Ace, acetohexamide]
IC50 [1]: > 200 µM | IC50 [2]: 6.5 ± 2.1 µM | Ki (α-TcCA): 5.6 µM | Ki (hCA II): 2.9 µM | IC50 [3]: 46.5 ± 0.1 µM | IC50 [4]: 52.9 ± 2.7 µM | Ki (hCA I): 17.3 µM | IC50 [5]: 46 ± 0.6 µM | IC50 [6]: > 200 µM | CC50 at 48 h (in vitro): > 200 µM

SMILES: O=C(Cn1ccnc1[N+](=O)[O-])NCc1ccccc1 [Bzn, Benznidazole]
IC50 [2]: 30.3 ± 0.03 µM | IC50 [3]: 167.1 ± 0.03 µM | IC50 [4]: 19.3 ± 0.08 µM | IC50 [6]: 145.3 ± 0.2 µM

SMILES: Cc1ccc(S(=O)(=O)NC(=O)NN2CC3CCCC3C2)cc1 (stereo not shown) [Glic, gliclazide]
IC50 [1]: 12.3 ± 0.01 µM | IC50 [2]: > 200 µM | Ki (α-TcCA): > 100 µM | IC50 [3]: 89.4 ± 0.1 µM | IC50 [4]: 10.7 ± 1.5 µM | Ki (hCA I): > 100 µM | IC50 [5]: > 200 µM | IC50 [6]: > 200 µM | CC50 at 48 h (in vitro): > 200 µM

SMILES: CCC1=C(C)CN(C(=O)NCCc2ccc(S(=O)(=O)NC(=O)N[C@H]3CC[C@H](C)CC3)cc2)C1=O [Glim, glimepiride]
IC50 [1]: 50.26 ± 0.01 µM | IC50 [2]: 70.2 ± 3.2 µM | Ki (α-TcCA): 35.7 µM | Ki (hCA II): 19.9 µM | IC50 [3]: > 200 µM | IC50 [4]: 37.6 ± 1.5 µM | Ki (hCA I): > 100 µM | IC50 [5]: > 200 µM | IC50 [6]: > 200 µM | CC50 at 48 h (in vitro): 14.2 ± 2.3 µM

IC50 [1]: 54.8 ± 0.01 µM | IC50 [5]: 70.5 ± 0.6 µM
SMILES: CC1CS(=O)(=O)CCN1/N=C/c1ccc([N+](=O)[O-])o1 (stereo not shown) [Nfx, Nifurtimox]
IC50 [2]: 7.1 ± 0.1 µM | IC50 [3]: 156 ± 0.1 µM | IC50 [4]: 39.1 ± 0.07 µM | IC50 [6]: 118.2 ± 0.02 µM

SMILES: CCCCNC(=O)NS(=O)(=O)c1ccc(C)cc1 [Tol, tolbutamide]
IC50 [1]: 44.5 ± 0.01 µM | IC50 [2]: 8.5 ± 1.4 µM | Ki (α-TcCA): > 100 µM | KI TcCA (α-TcCA; mean of three assays, errors ±5–10%): did not exhibit inhibitory activity | Ki (hCA II): > 100 µM | IC50 [3]: 9.8 ± 0.1 µM | IC50 [4]: > 200 µM | Ki (hCA I): > 100 µM | IC50 [5]: 148.7 ± 0.01 µM | IC50 [6]: 97.7 ± 0.1 µM | CC50 at 48 h (in vitro): > 200 µM

SMILES: Cc1cnc(C(=O)NCCc2ccc(S(=O)(=O)NC(=O)NC3CCCCC3)cc2)cn1 [glipizide]
IC50 (T. cruzi epimastigotes): 13.4 ± 6 µM
